Data: patent US10658848B2, “Materials for use with aqueous redox flow batteries and related methods and systems” (Massachusetts Institute of Technology, priority 2014, dated 2020)
Values after ≈ are worked out from the molar mass of the structure shown. Read-outs that look alike come from different tables or passages of the source.

How the values were obtained:
[1] = Solubility limit of quinoxaline in electrolytes and DI H2O; type: physicochemical; details: thermodynamic from solid
Method: The solubility limit (at room temperature) of quinoxaline in several electrolytes and DI H2O was estimated using the following method. Scintillation vials were filled with a known volume of electrolyte, and quinoxaline was added in 0.5 M increments. The vials were then vortex sonicated for ˜5 min between quinoxaline additions. Once no more quinoxaline could be dissolved into the vial, the solubility limit was recorded. This method was accurate to the lowest 0.5 M concentration, and solution volume changes due to quinoxaline addition were not considered.

[2] = Repeated CV cycling of 5 mM quinoxaline in 1 M potassium chloride; type: physicochemical
Method: Electrochemical experiments were carried out using other electrolytes.

- solubility ([1]; 0.45 M K2SO4/0.1 M KOH electrolyte, aqueous buffer, 0.45M K2SO4/0.1M KOH, pH 12.9, room temperature, three phase separation, read-out: Solubility Limit): 500 mM (≈ 65.1 mg/mL)
- solubility ([1]; 0.495 M K2SO4/0.01 M KOH electrolyte, aqueous buffer, 0.495M K2SO4/0.01M KOH, pH 11.8, room temperature, three phase separation, read-out: Solubility Limit): 500 mM (≈ 65.1 mg/mL)
- solubility ([1]; 0.9 M KCl/0.1 M KOH electrolyte, aqueous buffer, 0.9M KCl/0.1M KOH, pH 12.9, room temperature, bed of small crystals, read-out: Solubility Limit): 4000 mM (≈ 521 mg/mL)
- solubility ([1]; 0.99 M KCl/0.01 M KOH electrolyte, aqueous buffer, 0.99M KCl/0.01M KOH, pH 11.8, room temperature, bed of small crystals, read-out: Solubility Limit): 4000 mM (≈ 521 mg/mL)
- solubility ([1]; 1 M KOH electrolyte, aqueous buffer, 1M KOH, pH 13.7, room temperature, dendritic precipitation of crystals, read-out: Solubility Limit): 500 mM (≈ 65.1 mg/mL)
- solubility ([1]; aqueous electrolytes containing K2SO4 or only KOH, aqueous buffer, read-out: solubility of quinoxaline): ≤ 500 mM
- solubility ([1]; solutions containing KCl, aqueous buffer, read-out: solubility of quinoxaline): ≤ 4000 mM
- solubility ([1]; water, DI H2O, pH 7.0, room temperature, bed of small crystals, read-out: Solubility Limit): 4500 mM (≈ 586 mg/mL)
- cathodic and anodic currents on repeated cycling ([2]; 5 mM quinoxaline in 1 M potassium chloride, no added base, glassy carbon electrode): decreased with repeated cycling
SMILES: c1ccc2nccnc2c1 [quinoxaline]
- peak currents on repeated cycling ([2]; 5 mM quinoxaline in 1 M potassium chloride with 10 mM potassium hydroxide): no decrease in peak currents was observed after 100 or 200 cycles
